The values that follow come from patent US20240316059A1, “PEPTIDE DRUG CONJUGATES” (Oncopeptides AB, priority 2021, published 2024).

Molecules are shown by their SMILES. Like-named read-outs stand apart in the source and are kept apart here.

The subject of data set [1] is SC-1. The experiment in a line: In vitro cytotoxicity, SC-1 (B cell Lymphoma). The following applies: Homo sapiens, SC-1; 72 h, CellTiter-Glo 2.0; read-out: Cytotoxicity IC50, SC-1. It is filed as cell-based. The protocol: (§1) All cells were cultivated in RPMI medium 1640 (IX). All media was supplemented with 10 μg/μl penicillin/streptomycin, 10% heat inactivated FBS, 0.1 mM Sodium Pyruvate, 1×MEM NEAA (ThermoFisher) and 1 mM HEPES. The DERL-2 cells had higher FBS (20%) and 40 ng/mL IL-2 was added. hPBMCs were thawed and allowed to acclimatise overnight and then stimulated with 10 μg/mL PHA-M and 40 ng/mL IL-2 for 4 hours before being exposed to test compounds. All cells, except for hPBMCs, were grown to reach log phase before being exposed to the test compounds.
(§2) Test compounds were dissolved in 100% DMSO and added to a 384 assay plate. Additional DMSO was added to maintain the same final DMSO concentration (0.2%) in all wells. 25 μL cell suspension with a concentration of 100000 cells/mL was added to each well. The cells were cultured in a CO2 incubator at 37° C. for 72 h. Plates were equilibrated to room temperature for 30 minutes before adding 20 μL CellTiter-Glo® 2.0 (Promega) reagent to all wells. The plate was then allowed to stabilize for 20 minutes before recording the luminescence (Em filter 700 nm) in an Envision plate reader.
In general terms: ATP-based viability assays read luminescence as a measure of living cells.

Data set [2] has as its system AMO-1. The data set can be described thus: In vitro cytotoxicity, AMO-1 (Multiple Myeloma). The format is cell-based. The following applies: Homo sapiens, AMO1; 72 h, CellTiter-Glo 2.0; read-out: Cytotoxicity IC50, AMO-1. The protocol: as §1, §2
Data set [3] deals with MM.1S cells. The data set can be described thus: In vitro cytotoxic potency in MM.1S cell viability assay (CellTiter-Glo). It is filed as cell-based, human. The following applies: Homo sapiens, MM1.S, 72 h. A digest of the protocol:
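Log-phase MM.1S cells in supplemented RPMI 1640 were seeded at 100000 cells/mL with compound (0.2% DMSO final). After 72 h at 37 °C in CO2, viability was measured by CellTiter-Glo 2.0 luminescence.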

Data set [4] concerns EJM. The experiment in a line: In vitro cytotoxicity, EJM (Multiple Myeloma). It is filed as cell-based. The note with it: Homo sapiens, 72 h, CellTiter-Glo 2.0, read-out: Cytotoxicity IC50, EJM. The protocol: as §1, §2
Data set [5] deals with SUP-T1. The experiment in a line: In vitro cytotoxicity, SUP-T1 (T cell Lymphoma). It is filed as cell-based. The following applies: Homo sapiens, SUP-T1; 72 h, CellTiter-Glo 2.0; read-out: Cytotoxicity IC50, SUP-T1. The protocol: as §1, §2
The nature of data set [6]: In vitro cytotoxicity, human peripheral blood mononuclear cells. The format is cell-based. The following applies: CellTiter-Glo 2.0, stimulated with PHA-M and IL-2, read-out: Cytotoxicity IC50, hPBMC. The protocol:
as §1, §2

For data set [7], the system named is U266. The experiment in a line: In vitro cytotoxicity, U266 (Multiple Myeloma). The note with it: Homo sapiens, U-266; 72 h, CellTiter-Glo 2.0; read-out: Cytotoxicity IC50, U266. It is filed as cell-based. The protocol: as §1, §2
The test system of data set [8] is DNA prepared from MM.1S cells (nuclear HPRT and mitochondrial DNA). The experiment in a line: Direct DNA damage, PCR amplification of treated DNA (HPRT and mtDNA primers). The note with it: 0.25 μM compound, 30 minutes, 37° C., 1 μg DNA. The format is biochemical, human. The protocol: Method: DNA was prepared from MM.1S cells by QIAGEN genomic tip 20/G according to protocol described in Furda et al., Methods Mol Biol, 2012. 1 μg of DNA was treated with 0.25 μM compound for 30 minutes at 37° C. DMSO was used as control treatment. 20 ng of the treated DNA was PCR amplified using Phusion Hot Start II High Fidelity PCR Master Mix (Thermo Scientific) and primers directed to either HPRT or primers directed to mitochondrial DNA (mtDNA) was used, generating 10.4 or 8.9 kb fragments, respectively. The PCR reactions were separated on a 1% agarose gel and visualized by ChemiDoc™ MP Imaging System (BioRad). Example compounds 1, 2 and 38 were investigated, as were compounds 18 and 20, which are metabolites of compound 1. They were compared with bendamustine, melphalan and DMSO control. The results for compounds 1, 2, 18 and 20 with the HPRT primers are shown in FIG. 4(A); the results with the mtDNA primers are shown in FIG. 4(B).

The subject of data set [9] is THP-1. The data set can be described thus: In vitro cytotoxicity, THP-1 (Acute Myeloid Leukemia). The following applies: Homo sapiens, THP-1; 72 h, CellTiter-Glo 2.0; read-out: Cytotoxicity IC50, THP-1. The format is cell-based. The protocol: as §1, §2
The subject of data set [10] is DERL-2. The data set can be described thus: In vitro cytotoxicity, DERL-2 (T cell Lymphoma). The format is cell-based. The following applies: Homo sapiens, 72 h, CellTiter-Glo 2.0, 20% FBS, 40 ng/mL IL-2, read-out: Cytotoxicity IC50, DERL-2. The protocol: as §1, §2
In data set [11] the test system is OPM-2. The experiment in a line: In vitro cytotoxicity, OPM-2 (Multiple Myeloma). The format is cell-based. The following applies: Homo sapiens, OPM-2; 72 h, CellTiter-Glo 2.0; read-out: Cytotoxicity IC50, OPM-2. The protocol:
as §1, §2

For data set [12], the system named is KMS-12-BM. The experiment in a line: In vitro cytotoxicity, KMS-12-BM (Multiple Myeloma). The following applies: Homo sapiens, 72 h, CellTiter-Glo 2.0, read-out: Cytotoxicity IC50, KMS-12-BM. The format is cell-based. The protocol:
as §1, §2

Data set [13] in a line: In vitro cytotoxicity, BJ fibroblasts (normal cells). It is filed as cell-based. The note with it: human, CellTiter-Glo 2.0. The protocol:
as §1, §2

Data set [14] concerns MM.1S cells. The data set can be described thus: Cellular retention/efflux: intracellular and extracellular concentrations by LC-MS/MS. The format is in vitro ADME, human. The note with it: metabolites measured after treatment with the parent Example compound. The protocol: Methods: MMA1S cells at 2×10^6 cells/mL were seeded at 250 μL per well in a 96-well plate. Cells were incubated in the presence of a test compound for 5, 15, and 60 min before pelleting cells by centrifugation at +4° C. for 5 min. Cell media was immediately harvested to a second plate and stored at −80° C. until further analysis. Pelleted cells were washed once with ice cold PBS before storage at −80° C. until further analysis.
Cells were lysed and protein in the media were precipitated using acetonitrile dimethylformamide, 9:1 containing internal standard. Samples were centrifuged and the supernatant was analyzed with LC-MS/MS (ACQUITY UPLC-Xevo TQ-S micro) to determine compound concentration.
Example compound 1, bendamustine and melphalan were used as test compounds.
Method: Method described in Biological example 3.
Example compounds 1, 2, 3, 4, 6, 7 and 10 were investigated. Intracellular metabolites are formed from all compounds tested. The compound used for cell treatment was metabolised to the ester-hydrolysed compound (here called Metabolite A) and to the amide-hydrolysed compound (called Metabolite B). The example compound structures and the structures of the two metabolites for the respective compounds were as shown in Table 4. The Metabolites B formed under the conditions tested were compounds with structure as Examples 17 and 18: […]

Data set [15] concerns RPMI-8226. The data set can be described thus: In vitro cytotoxicity, RPMI-8226 (Multiple Myeloma, resistant). The following applies: Homo sapiens, RPMI-8226; 72 h, CellTiter-Glo 2.0; read-out: Cytotoxicity IC50, RPMI-8226. It is filed as cell-based. The protocol:
as §1, §2

For the compound `N[C@@H](Cc1ccc(N(CCCl)CCCl)cc1)C(=O)O` [Melphalan, melphalan, reference compound], the IC50 (as a rule, the concentration that inhibits the measured activity by half) in data set [1] amounted to 8.64 µM; in data set [2], 8.34 µM; in data set [3] (read-out: Cytotoxicity IC50, MM.1S), 4.25 µM; in [3] (read-out: MM.1S IC50) it was 4.25 µM; in data set [4] it was 40 µM; in data set [5], 2.96 µM. Moreover, the IC50 came to 18.9 µM in data set [7]; 4.31 µM in data set [9]; 1.88 µM in [10]; 10.2 µM in [11]; 9.83 µM in [12]; 32.5 µM in data set [15]. The IC50 at 72 h was determined as 3.6 µM in data set [6] and 104 µM in data set [13]. In addition, the “DNA damage on nuclear and mitochondrial DNA (PCR band)” value in [8] was “no or very minor effect on DNA damage”. Further, the “Intracellular concentration (in words)” value in data set [14] (MM.1S cells incubated with test compound 5, 15, 60 min) is on record as “low intracellular concentration”. Besides, the “Extracellular concentration (in words)” value in data set [14] (media of MM.1S cells incubated with test compound 5, 15, 60 min) is “high and constant throughout the experiment”.
